# Read-outs that look alike come from different tables or passages of the source.
# How the values were obtained:
# Mu (MOP) receptor = Mu (MOP) receptor (Homo sapiens, UniProt P35372); type: biochemical
# Kappa (KOP) receptor = Kappa (KOP) receptor (Homo sapiens, UniProt P41145); type: biochemical
# ORL1 (NOP) receptor = ORL1 (NOP) receptor (Homo sapiens, UniProt P41146); experiment: in vitro pharmacology at ORL1 receptor; type: biochemical
# Sigma opiate sites = experiment: in vitro affinity at sigma opiate sites; type: binding
# [1] = biological target: T1, adrenergic receptor Alpha 1B (Homo sapiens, UniProt P35368); experiment: in vitro antagonistic activity at adrenergic Alpha 1B; type: biochemical
# T1 sequence (P35368 1-520): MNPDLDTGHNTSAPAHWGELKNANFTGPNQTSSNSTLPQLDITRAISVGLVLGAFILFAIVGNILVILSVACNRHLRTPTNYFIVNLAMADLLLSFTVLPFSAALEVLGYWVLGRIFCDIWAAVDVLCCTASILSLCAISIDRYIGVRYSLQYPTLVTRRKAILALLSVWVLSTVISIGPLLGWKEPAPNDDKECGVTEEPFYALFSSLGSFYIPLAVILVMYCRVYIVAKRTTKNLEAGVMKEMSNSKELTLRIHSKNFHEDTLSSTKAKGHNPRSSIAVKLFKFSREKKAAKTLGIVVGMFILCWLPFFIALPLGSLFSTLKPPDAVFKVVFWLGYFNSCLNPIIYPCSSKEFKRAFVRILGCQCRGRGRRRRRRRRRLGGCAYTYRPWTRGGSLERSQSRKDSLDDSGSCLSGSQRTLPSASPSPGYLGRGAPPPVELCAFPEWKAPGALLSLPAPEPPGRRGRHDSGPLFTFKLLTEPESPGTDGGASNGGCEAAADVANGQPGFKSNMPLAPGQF
# [2] = biological target: T2, adrenergic receptor Alpha 2B (Homo sapiens, UniProt P18089); experiment: in vitro antagonistic activity at adrenergic Alpha 2B; type: biochemical
# T2 sequence (P18089 1-450): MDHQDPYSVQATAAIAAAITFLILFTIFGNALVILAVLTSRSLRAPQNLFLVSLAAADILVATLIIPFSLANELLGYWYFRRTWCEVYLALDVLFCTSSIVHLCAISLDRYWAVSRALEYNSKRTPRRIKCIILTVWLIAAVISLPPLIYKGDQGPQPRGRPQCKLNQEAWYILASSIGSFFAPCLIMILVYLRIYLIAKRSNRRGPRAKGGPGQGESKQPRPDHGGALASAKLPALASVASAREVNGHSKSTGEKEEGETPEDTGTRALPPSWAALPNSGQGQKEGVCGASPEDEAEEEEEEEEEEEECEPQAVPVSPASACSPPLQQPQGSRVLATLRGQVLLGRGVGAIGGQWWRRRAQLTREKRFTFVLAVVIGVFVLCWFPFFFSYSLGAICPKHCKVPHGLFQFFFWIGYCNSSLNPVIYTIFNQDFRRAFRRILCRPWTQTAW
# [3] = biological target: T3, adrenergic receptor Alpha 2C (Homo sapiens, UniProt P18825); experiment: in vitro antagonistic activity at adrenergic Alpha 2C; type: biochemical
# T3 sequence (P18825 1-462): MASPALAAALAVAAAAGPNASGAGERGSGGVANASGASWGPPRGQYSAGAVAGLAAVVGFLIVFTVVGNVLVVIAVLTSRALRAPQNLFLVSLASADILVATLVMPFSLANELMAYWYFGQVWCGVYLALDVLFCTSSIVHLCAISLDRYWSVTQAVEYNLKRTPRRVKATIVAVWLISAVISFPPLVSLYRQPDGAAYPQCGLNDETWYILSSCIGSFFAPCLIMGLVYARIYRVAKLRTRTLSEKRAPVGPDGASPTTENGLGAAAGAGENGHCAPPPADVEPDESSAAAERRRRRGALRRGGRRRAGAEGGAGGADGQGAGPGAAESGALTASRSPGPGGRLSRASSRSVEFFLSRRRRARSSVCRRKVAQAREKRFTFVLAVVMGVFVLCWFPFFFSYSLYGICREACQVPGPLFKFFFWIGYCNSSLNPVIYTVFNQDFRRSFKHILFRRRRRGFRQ
# histamine H1 receptor = histamine H1 receptor (Homo sapiens, UniProt P35367); experiment: in vitro antagonistic activity at histamine H1; type: biochemical
# histamine H1 receptor, sequence (P35367 whole entry, species assumed): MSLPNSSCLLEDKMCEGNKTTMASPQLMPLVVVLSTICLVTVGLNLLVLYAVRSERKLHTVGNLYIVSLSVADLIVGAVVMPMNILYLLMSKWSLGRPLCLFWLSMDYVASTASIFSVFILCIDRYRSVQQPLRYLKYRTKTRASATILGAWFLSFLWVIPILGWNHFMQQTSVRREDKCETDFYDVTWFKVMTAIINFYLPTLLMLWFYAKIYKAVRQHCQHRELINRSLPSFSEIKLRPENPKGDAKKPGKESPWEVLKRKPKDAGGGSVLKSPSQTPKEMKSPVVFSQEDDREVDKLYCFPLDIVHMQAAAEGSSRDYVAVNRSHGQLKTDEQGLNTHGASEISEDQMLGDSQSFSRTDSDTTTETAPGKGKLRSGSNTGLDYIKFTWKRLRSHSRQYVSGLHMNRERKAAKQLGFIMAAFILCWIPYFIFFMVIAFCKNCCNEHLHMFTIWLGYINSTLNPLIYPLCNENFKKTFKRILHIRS
# [4] = biological target: T4, cholinergic muscarinic receptor 1 (Homo sapiens, UniProt P11229); experiment: in vitro antagonistic activity at muscarinic receptor 1; type: biochemical
# T4 sequence (P11229 1-460): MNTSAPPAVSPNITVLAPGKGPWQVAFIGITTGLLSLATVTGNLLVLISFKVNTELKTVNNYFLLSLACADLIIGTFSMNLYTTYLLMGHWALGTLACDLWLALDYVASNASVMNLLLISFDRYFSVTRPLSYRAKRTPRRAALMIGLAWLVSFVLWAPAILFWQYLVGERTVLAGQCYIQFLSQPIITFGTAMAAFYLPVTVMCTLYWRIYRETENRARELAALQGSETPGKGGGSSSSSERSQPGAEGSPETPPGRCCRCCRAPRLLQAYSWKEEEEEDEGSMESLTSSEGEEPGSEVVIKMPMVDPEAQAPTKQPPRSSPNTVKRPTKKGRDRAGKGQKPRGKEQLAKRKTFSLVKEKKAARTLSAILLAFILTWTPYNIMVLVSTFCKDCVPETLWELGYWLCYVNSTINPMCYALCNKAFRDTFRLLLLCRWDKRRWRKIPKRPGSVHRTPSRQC
# [5] = biological target: cholinergic muscarinic receptor 3 (Homo sapiens, UniProt P20309); experiment: in vitro antagonistic activity at muscarinic receptor 3; type: biochemical
# cholinergic muscarinic receptor 3, sequence (P20309 whole entry): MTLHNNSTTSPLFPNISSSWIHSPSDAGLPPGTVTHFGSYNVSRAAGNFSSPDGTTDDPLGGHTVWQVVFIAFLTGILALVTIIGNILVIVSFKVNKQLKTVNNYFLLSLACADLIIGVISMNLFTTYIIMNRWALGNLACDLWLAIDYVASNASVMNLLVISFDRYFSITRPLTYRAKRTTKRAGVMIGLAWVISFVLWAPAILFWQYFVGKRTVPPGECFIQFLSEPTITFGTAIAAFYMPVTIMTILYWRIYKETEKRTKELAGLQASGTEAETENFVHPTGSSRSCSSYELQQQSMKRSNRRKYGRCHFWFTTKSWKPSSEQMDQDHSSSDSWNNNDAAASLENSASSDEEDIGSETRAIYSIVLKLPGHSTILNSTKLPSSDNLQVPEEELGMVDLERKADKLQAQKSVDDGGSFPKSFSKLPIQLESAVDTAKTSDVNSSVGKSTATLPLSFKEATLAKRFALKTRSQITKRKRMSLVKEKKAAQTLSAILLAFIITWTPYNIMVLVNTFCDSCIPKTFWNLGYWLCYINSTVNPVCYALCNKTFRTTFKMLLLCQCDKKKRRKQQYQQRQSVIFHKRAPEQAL
# [6] = biological target: T5, cholinergic muscarinic receptor 4 (Homo sapiens, UniProt P08173); experiment: in vitro antagonistic activity at muscarinic receptor 4; type: biochemical
# T5 sequence (P08173 1-479): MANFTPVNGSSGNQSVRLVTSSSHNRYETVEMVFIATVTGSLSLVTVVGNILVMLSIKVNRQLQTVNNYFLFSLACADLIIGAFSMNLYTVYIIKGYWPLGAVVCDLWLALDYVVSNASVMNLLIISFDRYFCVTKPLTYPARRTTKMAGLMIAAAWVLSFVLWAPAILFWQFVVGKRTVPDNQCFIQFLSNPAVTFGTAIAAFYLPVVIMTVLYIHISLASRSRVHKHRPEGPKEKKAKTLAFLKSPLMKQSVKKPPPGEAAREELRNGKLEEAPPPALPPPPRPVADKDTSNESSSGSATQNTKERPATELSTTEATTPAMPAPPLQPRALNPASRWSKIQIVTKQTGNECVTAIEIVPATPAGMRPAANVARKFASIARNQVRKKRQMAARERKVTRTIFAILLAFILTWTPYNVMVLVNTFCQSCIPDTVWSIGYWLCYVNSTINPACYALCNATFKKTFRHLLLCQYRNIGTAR
# [7] = biological target: T6, cholinergic muscarinic receptor 5 (Homo sapiens, UniProt P08912); experiment: in vitro antagonistic activity at muscarinic receptor 5; type: biochemical
# T6 sequence (P08912 1-532): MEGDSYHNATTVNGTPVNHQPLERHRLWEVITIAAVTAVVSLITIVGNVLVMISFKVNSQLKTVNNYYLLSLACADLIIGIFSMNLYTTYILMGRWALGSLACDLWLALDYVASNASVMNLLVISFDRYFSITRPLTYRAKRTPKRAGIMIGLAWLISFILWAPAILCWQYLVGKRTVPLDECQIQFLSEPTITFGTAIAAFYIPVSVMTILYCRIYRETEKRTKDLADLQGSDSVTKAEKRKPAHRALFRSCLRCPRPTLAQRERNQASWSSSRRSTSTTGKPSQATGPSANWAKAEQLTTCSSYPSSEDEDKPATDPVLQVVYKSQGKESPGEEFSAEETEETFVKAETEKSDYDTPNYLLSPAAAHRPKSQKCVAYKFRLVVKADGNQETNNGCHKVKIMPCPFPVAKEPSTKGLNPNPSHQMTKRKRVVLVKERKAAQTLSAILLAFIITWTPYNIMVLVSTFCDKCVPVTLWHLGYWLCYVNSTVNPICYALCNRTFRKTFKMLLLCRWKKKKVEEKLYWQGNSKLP
# dopamine D4 receptor = biological target: T7, dopamine D4 receptor (Homo sapiens, UniProt P21917); experiment: in vitro antagonistic activity at dopamine D4; type: biochemical
# T7 sequence (P21917 1-419): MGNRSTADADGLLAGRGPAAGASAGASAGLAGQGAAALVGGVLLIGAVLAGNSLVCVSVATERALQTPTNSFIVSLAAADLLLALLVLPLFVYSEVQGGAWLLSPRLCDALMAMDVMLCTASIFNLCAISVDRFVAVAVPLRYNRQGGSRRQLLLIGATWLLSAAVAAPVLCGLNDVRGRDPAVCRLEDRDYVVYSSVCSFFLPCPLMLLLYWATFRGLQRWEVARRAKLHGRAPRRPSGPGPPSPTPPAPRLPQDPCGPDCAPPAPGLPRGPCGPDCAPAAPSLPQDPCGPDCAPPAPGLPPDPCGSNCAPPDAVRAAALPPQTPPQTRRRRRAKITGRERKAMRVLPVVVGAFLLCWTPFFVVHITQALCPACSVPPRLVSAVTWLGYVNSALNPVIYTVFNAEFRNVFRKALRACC
# serotonin receptor 1A = biological target: T8, serotonin receptor 1A (Homo sapiens, UniProt P08908); experiment: in vitro antagonistic activity at serotonin receptor 1A; type: biochemical
# T8 sequence (P08908 1-422): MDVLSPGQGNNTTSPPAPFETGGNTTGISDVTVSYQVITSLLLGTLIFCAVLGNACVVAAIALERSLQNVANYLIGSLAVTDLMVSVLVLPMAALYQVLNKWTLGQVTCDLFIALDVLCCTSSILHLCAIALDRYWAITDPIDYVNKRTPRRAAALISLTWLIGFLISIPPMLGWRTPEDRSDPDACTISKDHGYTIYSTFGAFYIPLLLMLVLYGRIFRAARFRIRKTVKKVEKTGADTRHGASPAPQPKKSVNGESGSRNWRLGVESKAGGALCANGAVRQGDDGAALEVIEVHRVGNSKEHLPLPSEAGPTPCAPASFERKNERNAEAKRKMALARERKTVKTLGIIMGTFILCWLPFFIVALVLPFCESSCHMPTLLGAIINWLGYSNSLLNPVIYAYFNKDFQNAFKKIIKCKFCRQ
# serotonin receptor 1B = serotonin receptor 1B (Homo sapiens, UniProt P28222); experiment: in vitro antagonistic activity at serotonin receptor 1B; type: biochemical
# serotonin receptor 1B, sequence (P28222 whole entry): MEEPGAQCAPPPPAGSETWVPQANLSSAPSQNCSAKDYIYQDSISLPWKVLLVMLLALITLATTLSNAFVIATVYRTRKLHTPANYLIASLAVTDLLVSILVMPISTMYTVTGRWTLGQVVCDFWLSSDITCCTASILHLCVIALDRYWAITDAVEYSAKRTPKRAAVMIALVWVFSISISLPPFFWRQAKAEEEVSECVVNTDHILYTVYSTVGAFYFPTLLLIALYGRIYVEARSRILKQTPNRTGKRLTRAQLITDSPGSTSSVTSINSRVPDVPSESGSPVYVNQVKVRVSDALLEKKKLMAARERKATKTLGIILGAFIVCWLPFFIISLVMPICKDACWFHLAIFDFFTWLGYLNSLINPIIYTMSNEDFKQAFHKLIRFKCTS
# Kappa (KOP) receptor, sequence (P41145 whole entry): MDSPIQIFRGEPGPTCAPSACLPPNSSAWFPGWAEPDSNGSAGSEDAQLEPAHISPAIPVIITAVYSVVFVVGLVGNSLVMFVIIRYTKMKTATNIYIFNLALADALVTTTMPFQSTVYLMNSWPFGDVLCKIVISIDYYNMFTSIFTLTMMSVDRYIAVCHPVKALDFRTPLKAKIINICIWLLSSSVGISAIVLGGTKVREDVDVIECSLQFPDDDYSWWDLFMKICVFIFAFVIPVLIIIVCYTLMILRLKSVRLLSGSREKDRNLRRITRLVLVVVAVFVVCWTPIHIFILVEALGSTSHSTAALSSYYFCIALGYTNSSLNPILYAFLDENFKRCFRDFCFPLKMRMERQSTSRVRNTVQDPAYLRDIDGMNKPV
# ORL1 (NOP) receptor, sequence (P41146 whole entry): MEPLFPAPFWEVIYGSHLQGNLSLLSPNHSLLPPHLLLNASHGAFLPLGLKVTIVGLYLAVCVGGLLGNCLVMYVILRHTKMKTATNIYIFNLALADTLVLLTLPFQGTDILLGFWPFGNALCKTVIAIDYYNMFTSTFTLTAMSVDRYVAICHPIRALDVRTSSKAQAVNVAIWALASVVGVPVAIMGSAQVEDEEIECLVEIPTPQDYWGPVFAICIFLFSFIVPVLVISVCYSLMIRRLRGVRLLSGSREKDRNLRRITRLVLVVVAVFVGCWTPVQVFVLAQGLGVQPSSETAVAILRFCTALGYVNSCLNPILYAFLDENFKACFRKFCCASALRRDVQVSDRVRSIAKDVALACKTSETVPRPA
# Mu (MOP) receptor, sequence (P35372 whole entry): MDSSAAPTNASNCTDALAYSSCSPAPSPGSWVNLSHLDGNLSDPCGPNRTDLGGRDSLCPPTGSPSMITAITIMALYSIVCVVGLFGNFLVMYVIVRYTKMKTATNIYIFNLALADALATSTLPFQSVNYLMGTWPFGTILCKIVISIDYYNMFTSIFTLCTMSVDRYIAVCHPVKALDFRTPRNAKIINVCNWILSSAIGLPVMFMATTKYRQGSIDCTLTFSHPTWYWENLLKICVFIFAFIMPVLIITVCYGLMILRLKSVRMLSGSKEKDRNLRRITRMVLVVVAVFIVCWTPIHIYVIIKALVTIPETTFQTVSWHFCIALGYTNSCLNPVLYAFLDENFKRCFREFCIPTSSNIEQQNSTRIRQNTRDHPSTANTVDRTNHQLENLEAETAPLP
Structure (SMILES),Receptor Mu (MOP): mode of action (Mu (MOP) receptor),Receptor Kappa (KOP): mode of action (Kappa (KOP) receptor),Receptor ORL1 (NOP): mode of action (ORL1 (NOP) receptor),Receptor ORL1 (NOP): mode of action (ORL1 (NOP) receptor; listed as compound 1),Receptor Sigma: affinity (Sigma opiate sites; listed as compound 1),activity at adrenergic receptor Alpha 1B [1],activity at adrenergic receptor Alpha 2B [2],activity at adrenergic receptor Alpha 2C [3],activity at histamine H1 receptor (histamine H1 receptor),activity at cholinergic muscarinic receptor 1 [4],activity at cholinergic muscarinic receptor 3 [5],activity at cholinergic muscarinic receptor 4 [6],activity at cholinergic muscarinic receptor 5 [7],activity at dopamine D4 receptor (dopamine D4 receptor),activity at serotonin receptor 1A (serotonin receptor 1A),activity at serotonin receptor 1B (serotonin receptor 1B),Receptor Sigma: affinity (Sigma opiate sites)
"CCC(=O)NC1CC(C)N(CCc2ccccc2)CC1C (stereo not drawn) [Compound 1, 1-(2-phenylethyl)2,5-dimethyl-4-propionilaminopiperidine]",partial agonist,Antagonist,Antagonist,antagonist,activity,antagonistic activity,antagonistic activity,antagonistic activity,antagonistic activity,antagonistic activity,antagonistic activity,antagonistic activity,antagonistic activity,antagonistic activity,antagonistic activity,antagonistic activity,
C=CCN1CC[C@]23c4c5ccc(O)c4O[C@H]2C(=O)CC[C@@]3(O)[C@H]1C5 [Naloxone],,,,,,,,,,,,,,,,,Weak
O=C1CC[C@@]2(O)[C@H]3Cc4ccc(O)c5c4[C@@]2(CCN3CC2CC2)[C@H]1O5 [Naltrexone],,,,,,,,,,,,,,,,,Weak

# Reference: US20230310406A1 (priority 2020, published 2023)
